Results taken from patent US9242941B2, “Alkyl, fluoroalkyl-1,4-benzodiazepinone compounds” (BRISTOL-MYERS SQUIBB COMPANY, priority 2012, dated 2016).

Legend:
[1] = human metabolic stability half-life assay; conditions: microsomes, human liver microsomes
Description: Metabolic Stability Half-Life Panel
Incubation with Liver Microsomes

[2] = system: human Notch 3; test: Notch-CBF1 Transactivation Assay (Notch 3); format: cell-based; conditions: read-out: Notch 3 IC50; Notch-CBF1 transactivation luciferase assay in transfected HeLa cells; some values are an average of N experiments
Description: (§1) Notch-CBF1 Transactivation Assay
(§2) The Notch-CBF1 (C-promoter binding factor I) cell based transactivation assay is based on the ability of the released Notch intracellular domain fragments (NICDs) to function as transcription factors in conjunction with CBF1 and other nuclear factors. Luciferase assays were used to measure the antagonism of Notch-CBF1 transcriptional activity. HeLa cervical cancer cells are transiently co-transfected with pCDNA3.1/Hygro plasmids containing truncated Notch 1, Notch 2, Notch 3, or Notch 4 receptors and a PGL3 luciferase reporter vector containing 4 copies of CBF1 binding site. The cells were then tested for Notch-CBF1 activity in the absence or presence of test compounds. HeLa cells, maintained in DMEM (high glucose with HEPES), 1× glutamine/penicillin/streptomycin and 10% Fetal Bovine serum, were transiently transfected in a T175 Flask (4.5×10^6 cells/flask) using the Monster Transfection Kit (Minis #MIR2906) according to manufacturers specifications. Table 13 denotes respective DNA quantity for the transfections.
(§3) Assay media (5 μL) containing test compounds in final concentrations ranging from 5 μM to 8.4×10^−5 μM (3 fold serial dilutions) were added to the cells and the cell plates were then incubated for 18 hours at 37° C. and 5% CO2. Control wells contained DMSO vehicle (total counts) or 0.5 μM of an in-house small molecule inhibitor (background counts). Duplicates were used for each sample. Luciferase activity was measured after a 20-minute incubation with 50 μl STEADY-GLO® luciferase reagents according to manufacturer's specifications (Promega, Cat. #E2550) and analyzed by Envision plate reader (PerkinElmer, Boston, Mass.).
(§4) The antagonist effect of compounds was expressed as 100×[1−(average sample−average background)/(average total−average background)] where sample is the luciferase activity in the presence of test compound, background is equal to the luciferase activity in the presence of the small molecule inhibitor control and the total is signal induced in DMSO wells.

[3] = system: human Notch 1; test: Notch-CBF1 Transactivation Assay (Notch 1); format: cell-based; conditions: read-out: Notch 1 IC50; Notch-CBF1 transactivation luciferase assay in transfected HeLa cells; some values are an average of N experiments
Description: as §1, §2, §3, §4

[4] = pH 7.4, CYP-mediated metabolic stability half life, NADPH-dependent
[5] = pH 7.4, HLM (t1/2, min), CYP-mediated (NADPH-dependent), 0.5 μM compound, 45 min time course, some values are an average of N experiments

Compound | half-life at 0.5 µM [1, 4] | IC50 [2] | IC50 [3] | half-life at 0.5 µM [1, 5]
C=CC[C@H](C(N)=O)[C@@H](CC(C)C)C(=O)N[C@H]1N=C(c2ccccc2)c2cc(Cl)ccc2N(C)C1=O [Comparative Compound 57, reference compound] | ≤ 9 min |  |  | 
CCCC[C@H](C(N)=O)[C@@H](CC(C)C)C(=O)N[C@H]1N=C(c2ccc(Cl)cc2)c2ccccc2N(C)C1=O [Comparative Compound 58, reference compound] | ≤ 9 min |  |  | 
C=CC[C@H](C(N)=O)[C@@H](CC(C)C)C(=O)N[C@H]1N=C(c2ccccc2)c2ccccc2N(CCC)C1=O [Comparative Compound 59, reference compound] | ≤ 9 min |  |  | 
COc1cccc2c1NC(=O)[C@@H](NC(=O)[C@H](CCC(F)(F)F)[C@H](CC1CC1)C(N)=O)N=C2c1cccc(C(F)(F)F)c1 [Example 2, (2R,3S)-3-(Cyclopropylmethyl)-N-((3S)-9-methoxy-2-oxo-5-(3-(trifluoromethyl)phenyl)-2,3-dihydro-1H-1,4-benzodiazepin-3-yl)-2-(3,3,3-trifluoropropyl)succinamide] | ≥ 30 min | 1.5 nM | 1.7 nM | 46 min
Cc1cc(F)cc(C2=N[C@H](NC(=O)[C@H](CCC(F)(F)F)[C@H](CC3CC3)C(N)=O)C(=O)Nc3c(Cl)cccc32)c1 [Example 3, (2R,3S)—N-((3S)-9-Chloro-5-(3-fluoro-5-methylphenyl)-2-oxo-2,3-dihydro-1H-benzo[e][1,4]diazepin-3-yl)-3-(cyclopropylmethyl)-2-(3,3,3-trifluoropropyl)succinamide] | ≥ 30 min | 7.5 nM | 5.1 nM | 77 min
COc1cccc2c1NC(=O)[C@@H](NC(=O)[C@H](CCC(F)(F)F)[C@H](CC1CC1)C(N)=O)N=C2c1cccc(F)c1 [Example 4, (2R,3S)-3-(Cyclopropylmethyl)-N-((3S)-5-(3-fluorophenyl)-9-methoxy-2-oxo-2,3-dihydro-1H-1,4-benzodiazepin-3-yl)-2-(3,3,3-trifluoropropyl)succinamide] | ≥ 30 min | 8.1 nM | 4.2 nM | 83 min
NC(=O)[C@@H](CC1CC1)[C@@H](CCC(F)(F)F)C(=O)N[C@H]1N=C(c2cccc(F)c2)c2cccc(OC3CC3)c2NC1=O [Example 5, (2R,3S)-3-(Cyclopropylmethyl)-N-((3S)-9-(cyclopropyloxy)-5-(3-fluorophenyl)-2-oxo-2,3-dihydro-1H-1,4-benzodiazepin-3-yl)-2-(3,3,3-trifluoropropyl)succinamide] | ≥ 30 min | 8.9 nM | 5.1 nM | 74 min
NC(=O)[C@@H](CC1CC1)[C@@H](CCC(F)(F)F)C(=O)N[C@H]1N=C(c2ccccc2)c2cccc(OC3CC3)c2NC1=O [Example 6, (2R,3S)-3-(Cyclopropylmethyl)-N-((3S)-9-(cyclopropyloxy)-2-oxo-5-phenyl-2,3-dihydro-1H-1,4-benzodiazepin-3-yl)-2-(3,3,3-trifluoropropyl)succinamide] | ≥ 30 min | 8.6 nM | 7.2 nM | 83 min
NC(=O)[C@@H](CC1CC1)[C@@H](CCC(F)(F)F)C(=O)N[C@H]1N=C(c2ccc(Cl)cc2)c2cccc(C3CC3)c2NC1=O [Example 7, (2R,3S)—N-((3S)-5-(4-Chlorophenyl)-9-cyclopropyl-2-oxo-2,3-dihydro-1H-1,4-benzodiazepin-3-yl)-3-(cyclopropylmethyl)-2-(3,3,3-trifluoropropyl)succinamide] | ≥ 30 min | 3.3 nM | 2 nM | 97 min
Cc1cccc(C2=N[C@H](NC(=O)[C@H](CCC(F)(F)F)[C@H](CC3CC3)C(N)=O)C(=O)Nc3c(O)cccc32)c1 [Example 8, (2R,3S)-3-(Cyclopropylmethyl)-N-((3S)-9-hydroxy-5-(3-methylphenyl)-2-oxo-2,3-dihydro-1H-1,4-benzodiazepin-3-yl)-2-(3,3,3-trifluoropropyl)succinamide] | ≥ 30 min | 15.7 nM | 5.6 nM | 37 min
Cc1cccc2c1NC(=O)[C@@H](NC(=O)[C@H](CCC(F)(F)F)[C@H](CC1CC1)C(N)=O)N=C2c1cccc(C(F)(F)F)c1 [Example 9, (2R,3S)-3-(Cyclopropylmethyl)-N-((3S)-9-methyl-2-oxo-5-(3-(trifluoromethyl)phenyl)-2,3-dihydro-1H-1,4-benzodiazepin-3-yl)-2-(3,3,3-trifluoropropyl)succinamide] | ≥ 30 min | 4.9 nM | 1.8 nM | 90 min
Cc1cccc2c1NC(=O)[C@@H](NC(=O)[C@H](CCC(F)(F)F)[C@H](CC1CC1)C(N)=O)N=C2c1ccccc1 [Example 11, (2R,3S)-3-(Cyclopropylmethyl)-N-((3S)-9-methyl-2-oxo-5-phenyl-2,3-dihydro-1H-1,4-benzodiazepin-3-yl)-2-(3,3,3-trifluoropropyl)succinamide] | ≥ 30 min | 8.7 nM | 4 nM | 76 min
Cc1cccc2c1NC(=O)[C@@H](NC(=O)[C@H](CCC(F)(F)F)[C@H](CC1CC1)C(N)=O)N=C2c1ccc(F)cc1 [Example 12, (2R,3S)-3-(Cyclopropylmethyl)-N-((3S)-5-(4-fluorophenyl)-9-methyl-2-oxo-2,3-dihydro-1H-1,4-benzodiazepin-3-yl)-2-(3,3,3-trifluoropropyl)succinamide] | ≥ 30 min | 28.3 nM | 6.9 nM | 104 min
Cc1ccccc1C1=N[C@H](NC(=O)[C@H](CCC(F)(F)F)[C@H](CC2CC2)C(N)=O)C(=O)Nc2c(Cl)cccc21 [Example 13, (2R,3S)—N-((3S)-9-Chloro-5-(2-methylphenyl)-2-oxo-2,3-dihydro-1H-1,4-benzodiazepin-3-yl)-3-(cyclopropylmethyl)-2-(3,3,3-trifluoropropyl)succinamide] | ≥ 30 min | 5.1 nM | 2.9 nM | > 120 min
NC(=O)[C@@H](CC1CC1)[C@@H](CCC(F)(F)F)C(=O)N[C@H]1N=C(c2ccccc2)c2cccc(C3CC3)c2NC1=O [Example 14, (2R,3S)-3-(Cyclopropylmethyl)-N-(9-cyclopropyl-2-oxo-5-phenyl-2,3-dihydro-1H-1,4-benzodiazepin-3-yl)-2-(3,3,3-trifluoropropyl)succinamide] | ≥ 30 min | 5.1 nM | 4.3 nM | 41 min
CCC[C@H](C(N)=O)[C@@H](CCC(F)(F)F)C(=O)N[C@H]1N=C(c2ccccc2)c2cccc(C)c2NC1=O [Example 15, (2R,3S)—N-((3S)-9-Methyl-2-oxo-5-phenyl-2,3-dihydro-1H-1,4-benzodiazepin-3-yl)-3-propyl-2-(3,3,3-trifluoropropyl)succinamide] | ≥ 30 min | 9.3 nM | 12.7 nM | 40 min
Cc1ccc(C2=N[C@H](NC(=O)[C@H](CCC(F)(F)F)[C@H](CC3CC3)C(N)=O)C(=O)Nc3c(F)cccc32)cc1 [Example 16, (2R,3S)-3-(Cyclopropylmethyl)-N-((3S)-9-fluoro-5-(4-methylphenyl)-2-oxo-2,3-dihydro-1H-1,4-benzodiazepin-3-yl)-2-(3,3,3-trifluoropropyl)succinamide] | ≥ 30 min | 16 nM | 3.8 nM | 75 min
Cc1cc(F)c2c(c1)C(c1ccccc1)=N[C@H](NC(=O)[C@H](CCC(F)(F)F)[C@H](CC1CC1)C(N)=O)C(=O)N2 [Example 17, (2R,3S)-3-(Cyclopropylmethyl)-N-((3S)-9-fluoro-7-methyl-2-oxo-5-phenyl-2,3-dihydro-1H-1,4-benzodiazepin-3-yl)-2-(3,3,3-trifluoropropyl)succinamide] | ≥ 30 min | 26.4 nM | 9.7 nM | 60 min
Cc1ccc2c(c1F)NC(=O)[C@@H](NC(=O)[C@H](CCC(F)(F)F)[C@H](CC1CC1)C(N)=O)N=C2c1ccccc1 [Example 18, (2R,3S)-3-(Cyclopropylmethyl)-N-((3S)-9-fluoro-8-methyl-2-oxo-5-phenyl-2,3-dihydro-1H-1,4-benzodiazepin-3-yl)-2-(3,3,3-trifluoropropyl)succinamide] | ≥ 30 min | 6.9 nM | 6.5 nM | > 120 min
